Measured values from US5985822A, “Inhibition of glial cell proliferation with N-CAM homophilic peptides” (The Scripps Research Institute, priority 1995, dated 1999).

Legend:
[1] = system: rat forebrain astrocytes in primary culture; test: Astrocyte proliferation assay ([3H]-thymidine incorporation normalized to [35S]-methionine); type: cell-based; details: for effect of oligonucleotide preincubation on inhibition of proliferation by N-CAM: 200 nM oligonucleotide 48 hours before 2 μg/ml N-CAM; for effect of oligonucleotide alone on proliferation: 200 nM, no N-CAM added
Method: Primary cultures of astrocytes were prepared from the forebrains of 4-5 day old neonatal rats. After decapitation and removal of the forebrains from the skull, the meninges were carefully peeled off, and forebrain tissue was triturated in sterile phosphate buffered saline (PBS) using firepolished pipettes. The resulting suspension of tissue fragments was incubated in Hank's balanced salt solution (Gibco BRL) with 2.5 mg/ml trypsin, 1 mM EDTA and 0.1 mg/ml DNase (Boehringer) at 37° C. for 15 minutes. […] The pellet was resuspended in serum free medium (SFM) consisting of Dulbecco's Modified Eagle Medium (D-MEM), 2 mM L-glutamine, 50 U/ml penicillin G sodium and 50 μg/ml streptomycin sulfate (all from Gibco BRL) supplemented by 10% (vol/vol) fetal bovine serum (FBS). The cells were transferred to a standard 100 mm tissue culture dish (Falcon) and incubated at 37° C. for 1-2 hours. After mild shaking, the supernatant containing unattached cells was transferred to a 100 mm collagen-coated dish. […] Cell samples were checked regularly for the expression of GFAP, a marker for astrocytes.
After cell attachment, the culture medium was exchanged for SFM. In antisense experiments, oligonucleotides were added at the same time (T=0). […] After another 12 hours (at T=60), [^3 H]-thymidine (New England Nuclear, 20 Ci/mmol) was added (0.38 μM, 10 μCi/ml). Following an additional 12 hours (T=72), the wells were drained, counts precipitated by ice-cold […] trichloroacetic acid, and the plates left to dry. Counts were solubilized overnight by adding 100 μl 1 N KOH to each well, neutralized with 100 μl 1 N HCl, transferred to liquid scintillation vials and counted in 3 ml of Beckman Ready Safe liquid scintillation cocktail on a Packard 1600 TR counter. […] In this paper, proliferation is expressed as [^3 H]-thymidine incorporation normalized to [35]-methionine incorporation and calculated as [^3 H] dpm/ [35] dpm.

[2] = system: N-CAM; test: Levels of N-CAM expression in astrocytes by Western blotting (antisense experiments); type: cell-based, rat; details: oligonucleotide added for 48 hours
Method: The amounts of N-CAM present in astrocytes were quantified by Western blotting. Cultures were grown as described and cellular material was lysed in buffer (phosphate buffered saline, pH 7.4, containing 0.5% NP-40, 350 μg/ml PMSF, 2 μg/ml aprotinin, 0.5 μg/ml leupeptin, and 0.7 μg/ml pepstatin A) at 4° C. Standard Western blotting techniques were employed either using cell lysate directly or after N-CAM immunoprecipitation. [^125 I]-Immunolabeled N-CAM was estimated by densitometry on a Molecular Dynamics PhosporImager using ImageQuant software.
[…]. After deprotection, the oligonucleotides were purified using HPLC, ethanol precipitated, solubilized in distilled water and added to the culture medium at the indicated concentrations.

Molecule	effect of oligonucleotide preincubation on inhibition of proliferation by N-CAM [1]	effect of oligonucleotide alone on proliferation [1]	effect on N-CAM expression (in words) [2]	N-CAM level (sum of all molecular forms, mostly 140 kD and 120 kD) ([2]; mean ± S.E.M. (n))	[3H]-thymidine incorporation vs. SFM control ([1]; 2 μg/ml, n=2)	effect on astrocyte proliferation (in words) ([1]; added to astrocyte cultures in SFM)
5'-AGAUCCUUAG WUCGCAGCAUUGUA-3' (antisense AGAUCCUUAGUUCGCAGCAUUGUA; phosphorothioate linkages, further chemistry not given here) [N-CAM antisense RNA, phosphorothioate oligoribonucleotide complementary to position 205 to 228 of rat N-CAM]	weaker inhibitory effect of N-CAM on proliferation	no effect on proliferation	significantly reduced N-CAM expression	–	–	–
5'-GUCCAUGUACAUCUAGUCAGUUGA-3 (chemistry not given here) [random antisense RNA]	no such effect	no effect on proliferation	no effect on N-CAM expression	87 ± 18 % Control	–	–
N-CAM treated with neuraminidase: purified N-CAM treated with neuraminidase to remove sialic acid (protein, UniProt P13596 20-858, looked up, desialylated by neuraminidase, purified N-CAM treated with neuraminidase to remove sialic acid) Neural cell adhesion molecule …: LQVDIVPSQGEISVGESKFFLCQVAGDAKDKDISWFSPNGEKLSPNQQRISVVWNDDDSSTLTIYNANIDDAGIYKCVVTAEDGTQSEATVNVKIFQKLMFKNAPTPQEFKEGEDAVIVCDVVSSLPPTIIWKHKGRDVILKKDVRFIVLSNNYLQIRGIKKTDEGTYRCEGRILARGEINFKDIQVIVNVPPTVQARQSIVNATANLGQSVTLVCDADGFPEPTMSWTKDGEPIENEEEDDEKHIFSDDSSELTIRNVDKNDEAEYVCIAENKAGEQDASIHLKVFAKPKITYVENQTAMELEEQVTLTCEASGDPIPSITWRTSTRNISSEEKASWTRPEKQETLDGHMVVRSHARVSSLTLKSIQYTDAGEYICTASNTIGQDSQSMYLEVQYAPKLQGPVAVYTWEGNQVNITCEVFAYPSATISWFRDGQLLPSSNYSNIKIYNTPSASYLEVTPDSENDFGNYNCTAVNRIGQESLEFILVQADTPSSPSIDRVEPYSSTAQVQFDEPEATGGVPILKYKAEWKSLGEEAWHSKWYDAKEANMEGIVTIMGLKPETRYAVRLAALNGKGLGEISAATEFKTQPVREPSAPKLEGQMGEDGNSIKVNLIKQDDGGSPIRHYLVKYRALASEWKPEIRLPSGSDHVMLKSLDWNAEYEVYVVAENQQGKSKAAHFVFRTSAQPTAIPANGSPTAGLSTGAIVGILIVIFVLLLVVMDITCYFLNKCGLLMCIAVNLCGKAGPGAKGKDMEEGKAAFSKDESKEPIVEVRTEEERTPNHDGGKHTEPNETTPLTEPEKGPVETKSEPQESEAKPAPTEVKTVPNEATQTKENESKA	–	–	–	–	24±4%	–
N-CAM purified from embryonic chick brain: N-CAM purified from embryonic chick brain, which binds to rodent N-CAM (protein, UniProt P13590 20-1091, looked up) Neural cell adhesion molecule …: LQVDIVPSQGEISVGESKFFLCQVAGEAKYKDISWFSPNGEKLTPNQQRISVVRNDDFSSTLTIYNANIDDAGIYKCVVSSVEEGDSEATVNVKIFQKLMFKNAPTPQEFKEGDDAVIVCDVVSSLPPTIIWKHKGRDVMLKKDVRFIVLSNNYLQIRGIKKTDEGTYRCEGRILARGEINFKDIQVIVNVPPSVRARQSTMNATANLSQSVTLACDADGFPEPTMTWTKDGEPIEQEDNEEKYSFNYDGSELIIKKVDKSDEAEYICIAENKAGEQDATIHLKVFAKPKITYVENKTAMELEDQITLTCEASGDPIPSITWKTSTRNISNEEKTLDGRIVVRSHARVSSLTLKEIQYTDAGEYVCTASNTIGQDSQAMYLEVQYAPKLQGPVAVYTWEGNQVNITCEVFAYPSAVISWFRDGQLLPSSNYSNIKIYNTPSASYLEVTPDSENDFGNYNCTAVNRIGQESSEFILVQADTPSSPSIDRVEPYSSTARVEFDEPEATGGVPILKYKAEWRALGEGEWHSRLYDAKEANVEGTITISGLKPETTYSVRLSAVNGKGVGEISLPSDFKTQPVREPSAPKLEGQMGEDGNSIKVNVIKQDDGGSPIRHYLIKYKAKHSSEWKPEIRLPSGIDHVMLKSLDWNAEYEVYVIAENQQGKSKPAHYAFRTSAQPTVIPASTSPTSGLGTAAIVGILIVIFVLLLVAVDVTCYFLNKCGLLMCIAVNLCGKSGPGAKGKDMEEGKAAFSKDESKEPIVEVRTEEERTPNHDGGKHTEPNETTPLTEPEHTADTAATVEDMLPSVTTGTTNSDTITETFATAQNSPTSETTTLTSSIAPPATAIPDSNAMSPGQATPAKAGASPVSPPPPSSTPKVAPLVDLSDTPSSAPATNNLSSSVLSNQGAVLSPSTVANMAETSKAAAGNKSAAPTPANLTSPPAPSEPKQEVSSTKSPEKEAAQPSTVKSPTETAKNPSNPKSEAASGGTTNPSQNEDFKMDEGTFKTPDIDLAKDVFAALGTTTPASVASGQARELASSTADSSVPAAPAKTEKTPVEDKSEVQATEIRHLQQK	–	–	–	–	–	also inhibited proliferation
